Measured values taken from patent US8785459B2, “Quinazoline compounds as kinase inhibitors” (Development Center for Biotechnology, priority 2011, dated 2014).

Experiments:
[1] = target: B-Raf (Homo sapiens (Human), UniProt P15056); experiment: Raf kinase assay (B-Raf), [33P] incorporation into MEK1(K97R); type: biochemical; settings: for inhibition at 1 µM: 1.0 μM compound, read-out: B-Raf inhibition at 1.0 μM
In short: (§1)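 [33P] transfer to kinase-dead MEK1(K97R) substrate (500 ng) measured after 30 min at 30 °C in Tris pH 7.5 buffer containing 8 μM ATP. Enzyme inputs were 2 ng for C-Raf and 5 ng for B-Raf and B-Raf V600E. Duplicate 3-fold serial dilutions gave the half-maximal inhibitory concentration.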

[2] = target: B-Raf (V600E) (Homo sapiens (Human), UniProt P15056, V600E); experiment: Raf kinase assay (B-Raf (V600E)), [33P] incorporation into MEK1(K97R); type: biochemical
Sequence of B-Raf (V600E) (P15056 whole entry V600E): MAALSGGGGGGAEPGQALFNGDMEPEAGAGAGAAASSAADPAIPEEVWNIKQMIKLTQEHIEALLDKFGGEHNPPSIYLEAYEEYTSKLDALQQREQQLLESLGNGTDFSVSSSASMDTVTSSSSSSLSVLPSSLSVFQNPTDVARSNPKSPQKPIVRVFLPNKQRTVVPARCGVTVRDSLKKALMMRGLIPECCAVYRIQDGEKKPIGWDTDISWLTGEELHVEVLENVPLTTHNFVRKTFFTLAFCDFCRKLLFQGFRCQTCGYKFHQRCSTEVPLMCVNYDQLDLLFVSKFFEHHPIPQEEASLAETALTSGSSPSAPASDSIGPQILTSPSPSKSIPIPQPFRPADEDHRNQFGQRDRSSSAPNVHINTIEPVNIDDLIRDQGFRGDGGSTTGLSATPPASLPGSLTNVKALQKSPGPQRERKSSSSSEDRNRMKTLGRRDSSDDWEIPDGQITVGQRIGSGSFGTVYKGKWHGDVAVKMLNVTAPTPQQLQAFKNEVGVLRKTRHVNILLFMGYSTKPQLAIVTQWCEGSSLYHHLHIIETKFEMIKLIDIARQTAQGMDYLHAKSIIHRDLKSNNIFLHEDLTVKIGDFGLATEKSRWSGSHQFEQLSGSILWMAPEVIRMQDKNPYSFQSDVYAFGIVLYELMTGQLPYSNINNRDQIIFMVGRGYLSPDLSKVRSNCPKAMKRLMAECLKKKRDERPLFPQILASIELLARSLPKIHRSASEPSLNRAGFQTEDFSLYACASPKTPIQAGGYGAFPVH
In short: as §1

[3] = target: C-Raf (Homo sapiens (Human), UniProt P04049); experiment: Raf kinase assay (C-Raf), [33P] incorporation into MEK1(K97R); type: biochemical
Sequence of C-Raf (P04049 whole entry): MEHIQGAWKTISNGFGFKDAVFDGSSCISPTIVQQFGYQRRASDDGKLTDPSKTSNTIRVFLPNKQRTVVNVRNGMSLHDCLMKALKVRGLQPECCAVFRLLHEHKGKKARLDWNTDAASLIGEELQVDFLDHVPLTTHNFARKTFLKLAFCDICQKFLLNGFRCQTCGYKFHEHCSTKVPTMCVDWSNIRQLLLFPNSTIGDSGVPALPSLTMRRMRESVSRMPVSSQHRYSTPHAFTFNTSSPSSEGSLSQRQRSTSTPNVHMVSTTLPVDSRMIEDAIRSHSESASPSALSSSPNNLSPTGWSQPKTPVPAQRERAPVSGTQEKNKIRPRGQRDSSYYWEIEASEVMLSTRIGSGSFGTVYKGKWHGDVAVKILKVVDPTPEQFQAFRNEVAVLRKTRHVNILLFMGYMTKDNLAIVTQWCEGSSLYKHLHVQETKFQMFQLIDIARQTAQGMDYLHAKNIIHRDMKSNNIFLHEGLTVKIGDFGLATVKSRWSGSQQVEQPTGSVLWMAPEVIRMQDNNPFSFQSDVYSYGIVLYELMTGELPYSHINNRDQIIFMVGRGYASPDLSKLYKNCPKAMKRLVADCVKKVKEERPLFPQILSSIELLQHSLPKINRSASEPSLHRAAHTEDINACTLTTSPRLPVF
In short: as §1

[4] = target: VEGFR2 kinase (Homo sapiens (Human), UniProt P35968); experiment: VEGFR2 kinase assay; type: biochemical
Sequence of VEGFR2 kinase (P35968 834-1162): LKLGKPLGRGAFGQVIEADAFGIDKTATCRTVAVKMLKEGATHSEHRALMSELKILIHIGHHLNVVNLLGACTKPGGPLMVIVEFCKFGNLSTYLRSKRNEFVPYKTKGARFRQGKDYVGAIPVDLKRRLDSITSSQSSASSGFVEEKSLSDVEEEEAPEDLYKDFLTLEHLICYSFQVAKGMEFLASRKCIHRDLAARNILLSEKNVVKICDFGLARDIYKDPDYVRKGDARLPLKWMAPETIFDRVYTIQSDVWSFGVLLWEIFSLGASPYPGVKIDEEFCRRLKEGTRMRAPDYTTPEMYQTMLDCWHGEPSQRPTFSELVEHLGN
Experimental: Inhibition of VEGFR2 kinase activity by compounds disclosed herein was quantified by measuring the amount of [^33P] incorporated into the substrate in the presence of a test compound. […] The reaction was then stopped by adding 5 μL of 3% phosphoric acid solution. The resultant solution was transferred to and harvested by a filter plate (UniFilter-96 GF/B, PerkinElmer). The filter plate was then washed 20 times with d.d. H2O for 5 min followed by the addition of 30 μL of MicroScint™-20 Cocktail (PerkinElmer). After the plate was sealed, the retained radioactivity on the filter was counted using a TopCount™ scintillation detector (PerkinElmer). […]

[5] = target: FLT3 kinase (Homo sapiens (Human), UniProt P36888); experiment: FLT3 kinase assay; type: biochemical
Sequence of FLT3 kinase (P36888 610-943): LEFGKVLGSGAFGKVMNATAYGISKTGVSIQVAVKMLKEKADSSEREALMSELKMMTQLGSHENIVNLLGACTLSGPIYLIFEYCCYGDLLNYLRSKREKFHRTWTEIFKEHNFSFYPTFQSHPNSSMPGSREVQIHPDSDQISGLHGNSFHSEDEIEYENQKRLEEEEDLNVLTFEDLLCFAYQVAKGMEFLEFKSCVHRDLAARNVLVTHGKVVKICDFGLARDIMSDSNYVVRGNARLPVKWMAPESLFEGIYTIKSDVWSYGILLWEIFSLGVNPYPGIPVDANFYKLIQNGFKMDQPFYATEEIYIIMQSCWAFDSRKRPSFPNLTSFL
Experimental: Inhibition of FLT3 kinase activity by compounds disclosed herein was quantified by measuring the amount of [^33P] incorporated into the substrate in the presence of a test compound. Briefly, a reaction mixture of 25 μL final volume containing 5 ng of Flt3 kinase (obtained by purifying recombinant N-terminal 6×His-tagged Flt3 kinase domain construct expressed from baculovirus), 5 μg of the substrate (Poly(Glu-Tyr, 4:1, Sigma)), kinase reaction buffer (20 mM MOPS pH 7.0, 1 mM EDTA, 5% glycerol, 0.01% Brij-35, 0.1% β-mercaptoethanol, 1 mg/mL BSA, 100 μM ATP, 0.1 μCi per well [^33P]-γ-ATP (2,500-3,000 Ci/mmol)), and a test compound (100 nM, diluted with 4% DMSO) or DMSO (as the control) was incubated at 30° C. for 30 minutes. The reaction was stopped by adding 5 μL of 3% phosphoric acid solution. The resultant reaction solution was then harvested onto a filter plate (UniFilter-96 GF/B, PerkinElmer), washed 20 times for 5 min with d.d. H2O, and followed by the addition of 30 μL of MicroScint™-20 Cocktail (PerkinElmer). The plate was then sealed and counted using a TopCount™ scintillation detector (PerkinElmer). IC50 value is defined as the concentration of the test compound which achieves a half-maximal inhibition of the kinase activity.

[6] = target: Cdk1 kinase (Homo sapiens (Human), UniProt P06493); experiment: CDK1 kinase assay; type: biochemical
Sequence of Cdk1 kinase (P06493 4-287): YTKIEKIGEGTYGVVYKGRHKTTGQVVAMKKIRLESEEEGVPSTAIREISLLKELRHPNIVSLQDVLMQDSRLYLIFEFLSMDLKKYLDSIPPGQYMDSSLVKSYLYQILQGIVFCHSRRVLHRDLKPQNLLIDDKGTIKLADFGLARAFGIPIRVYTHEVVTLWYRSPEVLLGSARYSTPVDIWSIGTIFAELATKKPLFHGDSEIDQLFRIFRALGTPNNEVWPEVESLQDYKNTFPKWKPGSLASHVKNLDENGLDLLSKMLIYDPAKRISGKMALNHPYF
Sequence of Cdk1 kinase (P14635 whole entry partner, the tested form may be a part): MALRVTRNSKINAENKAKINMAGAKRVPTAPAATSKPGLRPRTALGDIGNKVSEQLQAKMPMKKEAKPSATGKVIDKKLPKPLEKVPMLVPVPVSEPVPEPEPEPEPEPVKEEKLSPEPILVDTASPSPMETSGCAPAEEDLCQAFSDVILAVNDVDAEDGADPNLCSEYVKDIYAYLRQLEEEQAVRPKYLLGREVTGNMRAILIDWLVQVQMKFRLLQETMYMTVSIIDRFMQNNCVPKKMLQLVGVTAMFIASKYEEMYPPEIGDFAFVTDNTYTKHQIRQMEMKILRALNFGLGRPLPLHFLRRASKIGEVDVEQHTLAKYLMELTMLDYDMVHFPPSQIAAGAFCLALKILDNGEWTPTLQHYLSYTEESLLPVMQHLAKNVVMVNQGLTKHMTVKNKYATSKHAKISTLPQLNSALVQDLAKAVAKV
Experimental: Inhibition of Cdk1 kinase activity by compounds disclosed herein was quantified by measuring the amount of [^33P] incorporated into the substrate in the presence of a test compound. Briefly, a reaction mixture of 25 μL final volume containing 5 ng of Cdk1 kinase (Cdk1 kinase domain alone, Millipore), 3 μg of the substrate [Histone H1], kinase reaction buffer (10 mM MOPS pH 7.0, 0.3 mM EDTA, 0.5% glycerol, 0.001% Brij-35, 0.1 mg/ml BSA, 10 μM ATP, 0.1 μCi per well [^33P]-γ-ATP (2,500-3,000 Ci/mmol)), and a test compound (100 nM, diluted with 4% DMSO) or DMSO (as the control) was incubated at 30° C. for 30 minutes. The reaction was stopped by adding 5 μL of 3% phosphoric acid solution. The resultant reaction solution was then harvested onto a filter plate (UniFilter-96 GF/B, PerkinElmer), washed 20 times for 5 min with d.d. H2O, and followed by the addition of 30 μL of MicroScint™-20 Cocktail (PerkinElmer). The radioactivity retained on the filter membrane was measured by TopCount™ scintillation detector (PerkinElmer). The results were analyzed by using linear regression software (GraphPad Prism™ 4; GraphPad Software Inc.).

[7] = tested on: A375; experiment: Anti-proliferative activity, CellTiter-96 assay, A375; type: cell-based; settings: Homo sapiens, A-375, A375 cells, 72 hours incubation
In short: (§2)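 Cells in DMEM with 10% FCS at 37° C., 5% CO2, plated at 2000 cells/well for 24 h, then exposed to graded compound concentrations for 72 h. CellTiter-96 Aqueous One reagent added for 4.0 h; viability read as absorbance at 490 nm.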

[8] = tested on: COLO205; experiment: Anti-proliferative activity, CellTiter-96 assay, COLO205; type: cell-based; settings: Homo sapiens, COLO 205, COLO205 cells, 72 hours incubation
In short: as §2

Sequence of B-Raf (P15056 whole entry): as the sequence (P15056 whole entry V600E) above, with E600V counted along it

COc1cc(-c2ccc3ncnc(Nc4cccc(O)c4)c3c2)ccc1O [Compound 8, 4-(4-(3-hydroxyphenylamino)quinazolin-6-yl)-2-methoxyphenol]
IC50 [1]: 30.2 nM
inhibition at 1 µM [1]: 94.2%
IC50 [2]: 37.4 nM
IC50 [3]: 255 nM
IC50 [4]: 139 nM
IC50 [5]: 271 nM
inhibition at 1 µM [6]: 88%
IC50 [7]: 900 ± 200 nM
IC50 [8]: 6700 ± 100 nM

COc1cc(-c2ccc3ncnc(Nc4cc(O)ccc4F)c3c2)ccc1O [Compound 58, 4-(4-(2-fluoro-5-hydroxyphenylamino)quinazolin-6-yl)-2-methoxyphenol]
IC50 [1]: 16.1 nM
inhibition at 1 µM [1]: 92.6%
IC50 [2]: 23.2 nM
IC50 [3]: 170 nM
IC50 [4]: 23.5 nM
IC50 [5]: 137 nM
inhibition at 1 µM [6]: 78%
IC50 [7]: 500 ± 100 nM
IC50 [8]: 3200 ± 300 nM
